Reference: patent US7575908B1, “Immobilization method for producing active α1-acid glycoprotein” (Board of Regents of the University of Nebraska, priority 2005, dated 2009)

Experiments:
Type in all cases: binding
α1-acid glycoprotein [1] = experiment: Self-competition zonal elution of R- and S-propranolol on immobilized α1-acid glycoprotein HPLC column; settings: pH 7.4 phosphate buffered saline, immobilized AGP column
Protocol: (§1) The α1-acid glycoprotein and hydrazide-activated supports were downward slurry-packed at 28 MPa (4000 psi) into 50×4.1 mm I.D. stainless steel columns. These columns were enclosed in water jackets for temperature control. All studies, except those examining the temperature dependence of propranolol—α1-acid glycoprotein binding, were performed at 37° C. The mobile phases and packing solutions were prepared using pH 7.4 phosphate buffered saline (PBS, composition: 0.013 M potassium dihydrogen phosphate, 0.053 M disodium hydrogen phosphate and 0.133 M sodium chloride). Prior to use, all mobile phases were filtered through a 0.45 μm cellulose acetate filter and degassed under vacuum for 10 min. Elution of R- and S-propranolol was detected by monitoring the absorbance at 225 nm. Zonal elution studies were performed on the α1-acid glycoprotein column by applying pH 7.4 phosphate buffer solution containing up to 20 μM of the desired competing agent while making 20 μL injections of R-propranolol or S-propranolol onto the column. At each concentration of competing agent, three replicate injections of the desired analyte were made. The propranolol samples were prepared by dissolving 5.0 μM R- or S-propranolol in the appropriate mobile phase. All mobile phases containing propranolol were prepared using the individual enantiomers or propranolol. The flow rate ranged from 0.8 to 1.5 mL/min, with no significant changes in the retention factors being noted under this range of conditions.
(§2) The retention times for propranolol were calculated using a B/A0.5 method. The column void volume was determined by making injections of sodium nitrate onto a column containing only hydrazide-activated silica while monitoring the absorbance at 205 nm. All elution times were corrected for the extra-column volume of the chromatographic system, as determined by making injections of R-propranolol or S-propranolol when no column was present. A correction for the small amount of non-specific binding between propranolol and the hydrazide support was made by measuring the retention factors for this drug on a column equivalent in size to the α1-acid glycoprotein column, but containing only hydrazide-activated silica. This was measured at each propranolol concentration in the mobile phase and accounted for 3-15% of the retention factors noted for propranolol on the α1-acid glycoprotein column. […] The column was stored in pH 7.4 PBS buffer at 4° C. when not in use.
All of the results presented in Table 2 were generated by performing self-competition zonal elution studies at temperatures ranging from 5° C. to 37° C. in pH 7.4 phosphate buffered saline. The numbers in parentheses represent a range of ± one standard deviation.

α1-acid glycoprotein [2] = experiment: Retention of R- and S-propranolol on α1-acid glycoprotein column as a function of pH; settings: for decrease of retention factor: pH decreased from 7.4 to 4.8
Protocol: as §1, §2
The effect of other separation conditions such as pH were also evaluated. For instance, as the pH decreased from 7.4 to 4.8, the retention factor for R-propranolol decreased from 132 to 17.8 (87%), while the retention factor for S-propranolol decreased from 167 to 17.8 (89%).

[3] = Effects of periodate oxidation on activity of immobilized α1-acid glycoprotein (chromatographic studies); settings: 37° C., pH 7.4 PBS
Protocol: FIG. 2A illustrates an exemplary method for preparing oxidized α1-acid glycoprotein. The conditions chosen for this reaction vary according to the final degree of oxidation desired. […] This mixture was allowed to react for 10 to 15 minutes at room temperature in the dark and quenched by adding 0.25 mL ethylene glycol per milliliter of sample. After this new mixture had reacted for 2 minutes, it was put into a dialysis bag at 4° C. for 2 hours against 2 liters pH 7.0, 20 mM acetate buffer containing 0.15 M sodium chloride. This was followed by three additional two-hour dialysis cycles against 2 liter portions of pH 7.0, 0.10 M potassium phosphate buffer.
Oxidized α1-acid glycoprotein was immobilized to hydrazide-activated silica by a procedure illustrated in FIG. 2C. In exemplary studies, a 5 mL portion of pH 7.0, 0.10 M phosphate buffer containing 1.5 mg/mL oxidized α1-acid glycoprotein was mixed with 0.03 grams of hydrazide-activated silica. This mixture was sonicated under aspirator vacuum for 10 minutes to remove any air bubbles from the suspension. It was then placed onto a shaker and allowed to react at 4° C. for up to seven days, with more than two days being optimum. The reaction was stopped by centrifuging the reaction mixture and removing the supernatant. The support was next washed several times with pH 7.0, 0.10 M phosphate buffer, followed by several additional washings with deionized water. Any hydrazide groups remaining on this support were removed by adding a 200-fold excess of glyceraldehyde versus the support's original hydrazide content. This mixture was shaken at 4° C. for 6 hours. The support was then washed several times with pH 7.0, 0.10 M phosphate buffer. The amount of immobilized α1-acid glycoprotein was determined by comparing the final and initial concentrations of α1-acid glycoprotein in the reaction slurry, using absorbance measurements at 280 nm.
as §1
The retention times for propranolol were calculated using a B/A0.5 method. The column void volume was determined by making injections of sodium nitrate onto a column containing only hydrazide-activated silica while monitoring the absorbance at 205 nm. All elution times were corrected for the extra-column volume of the chromatographic system, as determined by making injections of R-propranolol or S-propranolol when no column was present. […]

[4] = AGP oxidized with 10 mM periodate
[5] = AGP oxidized with 20 mM periodate
[6] = AGP oxidized with 50 mM periodate

Binding capacity [3, 4] | Binding capacity [3, 5] | Binding capacity [3, 6] | Compound | Association equilibrium constant, Ka (α1-acid glycoprotein [1]; 5° C.) | Association equilibrium constant, Ka (α1-acid glycoprotein [1]; 15° C.) | Association equilibrium constant, Ka (α1-acid glycoprotein [1]; 25° C.) | Association equilibrium constant, Ka (α1-acid glycoprotein [1]; 37° C.) | retention factor (α1-acid glycoprotein [2]; pH 4.8, AGP column) | retention factor (α1-acid glycoprotein [2]; pH 7.4, AGP column) | decrease of retention factor (α1-acid glycoprotein [2]) | Specific activity [3, 4] | Specific activity [3, 5] | Specific activity [3, 6]
– | – | – | CC(C)NC[C@@H](O)COc1cccc2ccccc12 [R-Propranolol] | 8 (±2) × 10^6 M^−1 | 7 (±1) × 10^6 M^−1 | 3.9 (±0.2) × 10^6 M^−1 | 2.7 (±0.2) × 10^6 M^−1 | 17.8 | 132 | 87% | – | – | –
– | – | – | CC(C)NCC(O)COc1cccc2ccccc12 (centres unmarked) [S-Propranolol] | 11 (±3) × 10^6 M^−1 | 9 (±2) × 10^6 M^−1 | 5.2 (±1.7) × 10^6 M^−1 | 4.2 (±0.3) × 10^6 M^−1 | 17.8 | 167 | 89% | – | – | –
6.8 (±0.2) mg/g silica | 6.3 (±0.3) mg/g silica | 6.8 (±0.3) mg/g silica | α1-acid glycoprotein [AGP] | – | – | – | – | – | – | – | 0.67 (±0.02) mg/mg AGP | 0.40 (±0.02) mg/mg AGP | 0.47 (±0.03) mg/mg AGP
